# Assay results: patent publication US20190274952A1, “TOPICAL USE OF AN ANTIMICROBIAL FORMULATION” (priority 2013, published 2019)
# Like-named read-outs stand apart in the source and are kept apart here.
# Tests used:
# [1] = cited from earlier work
# [2] = test system: Staphylococcus aureus (ATCC 6538); assay: Minimal concentration for total antimicrobial activity, AOAC method 955.15 (Phenol Coefficient Method); type: cell-based; details: agent incorporated into formulation F, contact time 10 minutes
# Description: The minimum concentration at which a total antimicrobial activity could be observed is determined for selected phenolic compounds of natural origin and selected essential oils using the AOAC method 955.15 (“Phenol Coefficient Method”) with minor modifications. Different concentrations of essential oils and phenolic compounds of natural origin are incorporated into formulation F (see table hereinbelow) and inoculated with a 0.05% bacterial suspension of Staphylococcus aureus (ATCC 6538; concentration of about 8 logs). After a contact time of 10 minutes, 0.1 ml of the inoculated solution is transferred to a broth culture with neutralizing (Difco 268110) and incubated over a period of 72 hours at 37° C. The presence of turbidity in the broth culture is indicative of the survival of the microorganism
Compound,LD50 Oral-rat ([1]; ingredients of Formulation 1),Minimal Concentration [2],also measured
C=O [Formaldehyde],,,"LD50 ([1]; rat, in vivo, po): of 100 mg/Kg; LD50 Oral-rat ([1]; rat, in vivo, po): 100 mg/kg; Toxicity ([1]; rat, in vivo): Toxic"
Sodium Laureth Sulfate,>5000 mg/kg,,
COCC(C)O (centres unmarked) [Glycol Ether PM],5 210 mg/kg,,
"OCCCO [1,3-Propanediol]",>15 000 mg/kg,,
Cc1ccc(C(C)C)c(O)c1 [Thymol],,0.07 v/v %,
Cc1ccc(C(C)C)cc1O [Carvacrol],,0.07 v/v %,
CC(C)=CCCC(C)=CC=O [Citral],,>1% v/v %,
C=CCc1ccc(O)c(OC)c1 [Eugenol],,0.4 v/v %,
CCCCCCCCCCCCCCCC[N+](C)(C)CC(=O)[O-] [Cetyl Betaine],1620 mg/kg,,
